Measurements published in US9561228B2 (Celgene Avilomics Research, Inc., priority 2013, dated 2017).

Test system: ERK1/2 phosphorylation of p90RSK in HT29 cells
Assay: pRSK MSD Assay in HT29 cells
Type: cell-based
Settings: Homo sapiens, HT-29, read-out: ERK1/ERK2 PRSK MSD HT29 EC50
Protocol: The protocol below describes an assay to measure the kinase activity of ERK1/2 to phosphorylate a substrate, p90RSK, in the presence or absence of a test compound. This experiment was conducted using a Mesoscale Discovery plate. The day before the assay, HT29 cells were split and plated at 50,000 cells/well in complete growth media. After allowing cells to adhere, the media was removed and replaced with media containing 0.1% FBS and incubated overnight. Blank MSD plates (Mesoscale Discovery, Cat # L15XA3) were coated with 25 μl/well RSK capture antibody (BD Biosciences, Cat. #610226) and incubated at 4° C. overnight, then blocked with 150 μl of 3% BSA solution. The next day, the media from the cell culture plate was removed and replaced with 100 μl of media containing a test compound and incubated for 120 minutes at 37° C. The media was removed and replaced with 55 μl per well of lysis buffer with protease inhibitors (Roche Biosciences, Cat. #11836170001) and phosphatase inhibitors (Sigma-Aldrich, Cat. # P-0044 and P-5726), followed by incubation at 4° C. for 30 minutes. 50 μl of lysate was transferred to a blocked MSD plate, followed by incubation at room temperature for 2 hours under constant shaking. The plate was washed 3 times with MSD wash buffer (Mesoscale Discovery, Cat. # R617TX), and 25 μl/well phospho-RSK (pRSK) detection antibody (Cell Signaling Technology, Cat. #9335) was added with Sulfo-tagged detection antibody (Mesoscale Discovery, Cat. # R32AB-1) diluted in 1% BSA in MSD wash buffer. This mixture was incubated for 1 hour at room temperature under constant shaking. The plate was washed 3 times, and 150 μl 1×MSD read buffer was added, followed by signal detection in an MSD plate reader.

SMILES	EC50
CC(C)=CC(=O)c1ccccc1Oc1nc(Nc2ccc(F)cc2C)ncc1Cl [Compound I-222, 1-(2-((5-chloro-2-((4-fluoro-2-methylphenyl)amino)pyrimidin-4-yl)oxy)phenyl)-3-methylbut-2-en-1-one]	> 1000 nM
C/C=C/C(=O)Nc1ccccc1Nc1nc(Nc2cc(C(N)=O)ccc2C)ncc1Cl [Compound I-219, (E)-3-((4-((2-(but-2-enamido)phenyl)amino)-5-chloropyrimidin-2-yl)amino)-4-methylbenzamide]	> 1000 nM
Cc1ccc(C(N)=O)cc1Nc1ncc(Cl)c(Nc2ccccc2NC(=O)/C=C/CN(C)C)n1 [Compound I-218, (E)-3-((5-chloro-4-((2-(4-(dimethylamino)but-2-enamido)phenyl)amino)pyrimidin-2-yl)amino)-4-methylbenzamide]	> 1000 nM
C=CC(=O)Nc1ccccc1CNc1nc(N[C@H]2CCCN(C(=O)CO)C2)ncc1C(F)(F)F [Compound I-45, (S)—N-(2-(((2-((1-(2-Hydroxyacetyl)piperidin-3-yl)amino)-5-(trifluoromethyl)pyrimidin-4-yl)amino)methyl)phenyl)acrylamide]	> 1000 nM
C=C(C)S(=O)(=O)Nc1cc(C)ccc1Nc1nc(NC2CCC(=O)CC2)ncc1C(F)(F)F [Compound I-53, N-(5-Methyl-2-((2-((4-oxocyclohexyl)amino)-5-(trifluoromethyl)pyrimidin-4-yl)amino)phenyl)prop-1-ene-2-sulfonamide]	> 1000 nM
C=C(C)S(=O)(=O)Nc1cc(F)ccc1Nc1nc(N[C@H]2CCCN(C(=O)CO)C2)ncc1C(F)(F)F [Compound I-54, (S)—N-(5-Fluoro-2-((2-((1-(2-hydroxyacetyl)piperidin-3-yl)amino)-5-(trifluoromethyl)pyrimidin-4-yl)amino)phenyl)prop-1-ene-2-sulfonamide]	> 1000 nM
CC#CC(=O)N[C@@H]1CCCC[C@H]1Nc1nc(N[C@H]2CCCN(C(=O)CO)C2)ncc1C(F)(F)F [Compound I-33, N-((1R,2R)-2-((2-(((S)-1-(2-Hydroxyacetyl)piperidin-3-yl)amino)-5-(trifluoromethyl)pyrimidin-4-yl)amino)cyclohexyl)but-2-ynamide]	> 1000 nM
C=CC(=O)Nc1ccccc1Nc1nc(N[C@@H]2CCN(C(=O)CO)C2)ncc1C(F)(F)F [Compound I-62, (R)—N-(2-((2-((1-(2-Hydroxyacetyl)pyrrolidin-3-yl)amino)-5-(trifluoromethyl)pyrimidin-4-yl)amino)phenyl)acrylamide]	> 1000 nM
C=CC(=O)N[C@H]1CCCC1Nc1nc(N[C@H]2CCCN(C(C)=O)C2)ncc1C(F)(F)F (stereo in doubt) [Compound I-24, N-((1S,2S)-2-((2-(((S)-1-Acetylpiperidin-3-yl)amino)-5-(trifluoromethyl)pyrimidin-4-yl)amino)cyclopentyl)acrylamide]	> 1000 nM
CC(=O)N1CCC[C@H](Nc2ncc(C(F)(F)F)c(N[C@@H]3[C@H](C(N)=O)[C@H]4C=C[C@@H]3C4)n2)C1 [Compound I-309, (1R,2R,3S,4S)-3-((2-(((S)-1-acetylpiperidin-3-yl)amino)-5-(trifluoromethyl)pyrimidin-4-yl)amino)bicyclo[2.2.1]hept-5-ene-2-carboxamide]	> 1000 nM
C=CC(=O)Nc1ccccc1Nc1nc(N[C@@H]2CCN(C(=O)OC)C2)ncc1C(F)(F)F [Compound I-61, (R)-Methyl 3-((4-((2-Acrylamidophenyl)amino)-5-(trifluoromethyl)pyrimidin-2-yl)amino)pyrrolidine-1-carboxylate]	> 1000 nM
CC#CC(=O)Nc1ccccc1Nc1nc(N[C@H]2CCCN(C(=O)CO)C2)ncc1C(F)(F)F [Compound I-29, (S)—N-(2-((2-((1-(2-Hydroxyacetyl)piperidin-3-yl)amino)-5-(trifluoromethyl)pyrimidin-4-yl)amino)phenyl)but-2-ynamide]	> 1000 nM
C=CC(=O)N(C)c1ccccc1Nc1nc(Nc2cc(C(=O)NOC)ccc2C#N)ncc1Cl [Compound I-197, 3-((5-chloro-4-((2-(N-methylacrylamido)phenyl)amino)pyrimidin-2-yl)amino)-4-cyano-N-methoxybenzamide]	> 1000 nM
C=CC(=O)Nc1cc(C)ccc1Nc1nc(N[C@H]2CCCN(C(=O)c3ccccc3)C2)ncc1C(F)(F)F [Compound I-44, (S)—N-(2-((2-((1-Benzoylpiperidin-3-yl)amino)-5-(trifluoromethyl)pyrimidin-4-yl)amino)-5-methylphenyl)acrylamide]	> 1000 nM
CC(C)=CC(=O)c1ccccc1Oc1nc(Nc2cc(C(N)=O)ccc2C)ncc1Cl [Compound I-223, 3-((5-chloro-4-(2-(3-methylbut-2-enoyl)phenoxy)pyrimidin-2-yl)amino)-4-methylbenzamide]	> 1000 nM
C=C(C)C(=O)Nc1ccccc1Nc1nc(Nc2cc(C(N)=O)ccc2C)ncc1Cl [Compound I-217, 3-((5-chloro-4-((2-methacrylamidophenyl)amino)pyrimidin-2-yl)amino)-4-methylbenzamide]	> 1000 nM

Continued, values first:

EC50	SMILES
501 to 999 nM	C=CS(=O)(=O)N[C@@H]1CCCC[C@H]1Nc1nc(N[C@H]2CCCN(C(=O)CO)C2)ncc1C(F)(F)F [Compound I-36, N-((1R,2R)-2-((2-(((S)-1-(2-Hydroxyacetyl)piperidin-3-yl)amino)-5-(trifluoromethyl)pyrimidin-4-yl)amino)cyclohexyl)ethenesulfonamide]
> 1000 nM	CC(C)=CC(=O)c1ccccc1Oc1nc(Nc2cc(C(N)=O)ccc2C)ncc1C(N)=O [Compound I-271, 2-((5-carbamoyl-2-methylphenyl)amino)-4-(2-(3-methylbut-2-enoyl)phenoxy)pyrimidine-5-carboxamide]
501 to 999 nM	C=CC(=O)Nc1ccccc1Nc1nc(N[C@H]2CCCN(C(=O)C3CC3)C2)ncc1Cl [Compound I-136, (S)—N-(2-((5-chloro-2-((1-(cyclopropanecarbonyl)piperidin-3-yl)amino)pyrimidin-4-yl)amino)phenyl)acrylamide]
101 to 500 nM	C=CC(=O)Nc1cc(Cl)ccc1Nc1nc(Nc2cc(Cl)nc(OC)c2)ncc1Cl [Compound I-247, N-(5-chloro-2-((5-chloro-2-((2-chloro-6-methoxypyridin-4-yl)amino)pyrimidin-4-yl)amino)phenyl)acrylamide]
101 to 500 nM	C=CC(=O)Nc1cc(C)ccc1Nc1nc(Nc2cc(Cl)nc(OC)c2)ncc1Cl [Compound I-244, N-(2-((5-chloro-2-((2-chloro-6-methoxypyridin-4-yl)amino)pyrimidin-4-yl)amino)-5-methylphenyl)acrylamide]
101 to 500 nM	C=CC(=O)Nc1ccccc1Nc1nc(N[C@H]2CCCN(C(=O)OC)C2)ncc1C(F)(F)F [Compound I-17, (S)-Methyl 3-((4-((2-acrylamidophenyl)amino)-5-(trifluoromethyl)pyrimidin-2-yl)amino) piperidine-1-carboxylate]
501 to 999 nM	C=CC(=O)Nc1ccccc1Nc1nc(N[C@H]2CCCN(C(=O)C(C)C)C2)ncc1Cl [Compound I-137, (S)—N-(2-((5-chloro-2-((1-isobutyrylpiperidin-3-yl)amino)pyrimidin-4-yl)amino)phenyl)acrylamide]
